Measured values reported in PubChem BioAssay AID2060893 (Molecular Pharmacology Branch, DTP, NCI, 2025).
Where “and” joins values, the source holds several entries; their conditions need not be identical. Identical values can stand only once.

Test system: K86415-001-R-J1-PDC complex spheroids, viability
Test: Anticancer human tumor K86415-001-R-J1-PDC patient-derived lung adenocarcinoma cell line growth inhibition [RAS]
Conditions: for viability, T/C: stronger effect = lower value
Summary of the method: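 Tumour cells grown as complex spheroids with HUVEC endothelial cells and mesenchymal stem cells, treated with RAS pathway inhibitor combinations. Each agent spans half-log steps from near clinical Cmax, or 10 microM where Cmax is unknown.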
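Further: spheroids exposed to agents for seven days before readout.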

Question: `C=CC(=O)N1CCN(c2nc(OCC3CCCN3C)nc3c(F)c(-c4nc(N)cc(C)c4C(F)(F)F)c(Cl)cc23)C(C)C1` (centres undefined) + CCn1c(-c2cccnc2C(C)OC)c2c3cc(ccc31)N1CCOC(CC(NC(=O)C(C(C)C)N(C)C(=O)C3(F)CCN(C(=O)C#CC(C)(C)N(C)C)CC3)C(=O)N3CCCC(N3)C(=O)OCC(C)(C)C2)C1 was tested. Which IC50 (curve of first compound, second compound 0.000949 µM) did it give?
Answer: < 3.16 nM

Question: And the IC50 (curve of first compound, second compound 0.003 µM)?
Answer: < 3.16 nM

Question: And the IC50 (curve of first compound, second compound 0.00949 µM)?
Answer: < 3.16 nM

Question: And the IC50 (curve of first compound, second compound 0.03 µM)?
Answer: < 3.16 nM

Question: What about the IC50 (curve of first compound, second compound 0.0949 µM) of the same compound?
Answer: < 3.16 nM

Question: And the IC50 (curve of first compound, second compound 0.3 µM)?
Answer: < 3.16 nM

Question: What about the viability, T/C (second compound 0.000949 µM, first compound 0.00316 µM) of the same compound?
Answer: 13.8%

Question: And the viability, T/C (second compound 0.000949 µM, first compound 0.01 µM)?
Answer: 12.1%

Question: And the viability, T/C (second compound 0.000949 µM, first compound 0.0316 µM)?
Answer: 9.94%

Question: What about the viability, T/C (second compound 0.000949 µM, first compound 0.1 µM) of the same compound?
Answer: 9.02%

Question: And the viability, T/C (second compound 0.000949 µM, first compound 0.316 µM)?
Answer: 11.8%

Question: And the viability, T/C (second compound 0.000949 µM, first compound 1 µM)?
Answer: 9.5%

Question: And the viability, T/C (second compound 0.003 µM, first compound 0.00316 µM)?
Answer: 13.5%

Question: What about the viability, T/C (second compound 0.003 µM, first compound 0.01 µM) of the same compound?
Answer: 12.9%

Question: And the viability, T/C (second compound 0.003 µM, first compound 0.0316 µM)?
Answer: 12.2%

Question: And the viability, T/C (second compound 0.003 µM, first compound 0.1 µM)?
Answer: 11.1%

Question: And the viability, T/C (second compound 0.003 µM, first compound 0.316 µM)?
Answer: 12%

Question: What about the viability, T/C (second compound 0.003 µM, first compound 1 µM) of the same compound?
Answer: 9.09%

Question: And the viability, T/C (second compound 0.00949 µM, first compound 0.00316 µM)?
Answer: 13.7%

Question: And the viability, T/C (second compound 0.00949 µM, first compound 0.01 µM)?
Answer: 10.7%

Question: And the viability, T/C (second compound 0.00949 µM, first compound 0.0316 µM)?
Answer: 14.6%

Question: And the viability, T/C (second compound 0.00949 µM, first compound 0.1 µM)?
Answer: 10.1%

Question: And the viability, T/C (second compound 0.00949 µM, first compound 0.316 µM)?
Answer: 10.7%

Question: And the viability, T/C (second compound 0.00949 µM, first compound 1 µM)?
Answer: 11.4%

Question: And the viability, T/C (second compound 0.03 µM, first compound 0.00316 µM)?
Answer: 13%

Question: And the viability, T/C (second compound 0.03 µM, first compound 0.01 µM)?
Answer: 13.4%

Question: And the viability, T/C (second compound 0.03 µM, first compound 0.0316 µM)?
Answer: 11.1%

Question: What about the viability, T/C (second compound 0.03 µM, first compound 0.1 µM) of the same compound?
Answer: 11.8%

Question: And the viability, T/C (second compound 0.03 µM, first compound 0.316 µM)?
Answer: 11.7%

Question: And the viability, T/C (second compound 0.03 µM, first compound 1 µM)?
Answer: 16.2%

Question: What about the viability, T/C (second compound 0.0949 µM, first compound 0.00316 µM) of the same compound?
Answer: 11%

Question: What about the viability, T/C (second compound 0.0949 µM, first compound 0.01 µM) of the same compound?
Answer: 10.7%

Question: And the viability, T/C (second compound 0.0949 µM, first compound 0.0316 µM)?
Answer: 13.2%

Question: And the viability, T/C (second compound 0.0949 µM, first compound 0.1 µM)?
Answer: 11.2%

Question: What about the viability, T/C (second compound 0.0949 µM, first compound 0.316 µM) of the same compound?
Answer: 12.8%

Question: What about the viability, T/C (second compound 0.0949 µM, first compound 1 µM) of the same compound?
Answer: 15.8%

Question: And the viability, T/C (second compound 0.3 µM, first compound 0.00316 µM)?
Answer: 12%

Question: And the viability, T/C (second compound 0.3 µM, first compound 0.01 µM)?
Answer: 12.6%

Question: What about the viability, T/C (second compound 0.3 µM, first compound 0.0316 µM) of the same compound?
Answer: 14.4%

Question: And the viability, T/C (second compound 0.3 µM, first compound 0.1 µM)?
Answer: 11.2%

Question: What about the viability, T/C (second compound 0.3 µM, first compound 0.316 µM) of the same compound?
Answer: 14%

Question: What about the viability, T/C (second compound 0.3 µM, first compound 1 µM) of the same compound?
Answer: 14.1%

Question: Which viability, T/C (compound 0.0316 µM) does the source give for `CCC(CC)c1cc(NC2CCC(N)C2)n2nccc2n1` (centres undefined) here?
Answer: 106% and 116% (2×) and 92.8%

Question: What about the viability, T/C (compound 0.1 µM) of the same compound?
Answer: 115% [middle of 4 runs]

Question: What about the viability, T/C (compound 0.316 µM) of the same compound?
Answer: 122% [middle of 4 runs]

Question: What about the viability, T/C (compound 1 µM) of the same compound?
Answer: 100% [middle of 4 runs]

Question: What about the viability, T/C (compound 3.16 µM) of the same compound?
Answer: 3.47% [middle of 4 runs]

Question: And the viability, T/C (compound 10 µM)?
Answer: 3.37% [middle of 4 runs]

Question: What about the IC50 (curve of compound) of the same compound?
Answer: 1.82 µM [middle of 4 runs]
